Laboratory results taken from article PMC6792352, “Limited Chemical Structural Diversity Found to Modulate Thyroid Hormone Receptor in the Tox21 Chemical Library” (Environmental Health Perspectives, 2019).
Read-outs that look alike come from different tables or passages of the source.

Key:
[1] = molecular target: T1, TRα ligand-binding domain (Homo sapiens, UniProt P10827); assay: TRa-coa LanthaScreen TR-FRET coactivator (SRC-2 peptide) recruitment, agonist (TOX21_TRA_COA_Agonist_Followup_ratio, aeid 2230); type: biochemical; conditions: for AC50: cell-free coactivator recruitment, read-out: TRa-coa-Ag AC50; for TRa-coa hitc: hit call from tcpl, agonist; for Emax: read-out: EMax (% of Control) tra-coa-agonist-followup-1
T1 construct: the receptor LBDs expressed as glutathione S-transferase (GST) fusion proteins; purchased

[2] = test system: thyroid hormone receptor (TR); assay: Classification of TR actives across characterization assays (TR-Ag / RXR-Ag; TR model binary); conditions: for Categorization Code: TR agonist characterization; for Classification: TR-Ag = TR agonist, RXR-Ag = RXR agonist
Summary of the method: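 GH3-TRE qHTS agonist, antagonist and viability modes over 8,305 compounds; 84 candidates rescreened in GH3-TRE-Ag, TRβ- and RXRα-UAS-bla HEK 293T one-hybrid assays, HEK293T viability, and TRα/TRβ coactivator recruitment. Actives classified binary after removing pharmaceuticals.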

human RXRα = molecular target: T2, human RXRα (Homo sapiens, UniProt P19793); assay: RXRa-bla-Ag mammalian one-hybrid beta-lactamase assay (TOX21_TR_RXR_BLA_Agonist_Followup_ratio, aeid 2253); type: cell-based; conditions: for AC50: HEK 293T one-hybrid, agonist mode, inactive set to 1,000, read-out: RXRa-bla-Ag AC50; for tr-followup-rxr-bla-agonist-1 hitc: hit call from tcpl
T2 construct: host or cells: GeneBLAzer UAS-bla HEK 293T
T2 sequence (P19793 227-458 limits assumed): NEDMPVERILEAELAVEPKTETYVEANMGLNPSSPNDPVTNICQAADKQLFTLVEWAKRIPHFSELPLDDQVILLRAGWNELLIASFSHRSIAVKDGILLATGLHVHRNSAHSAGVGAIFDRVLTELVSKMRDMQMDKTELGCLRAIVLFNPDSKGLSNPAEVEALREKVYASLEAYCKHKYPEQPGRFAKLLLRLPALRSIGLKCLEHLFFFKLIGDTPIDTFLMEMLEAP

[3] = test system: thyroid hormone receptor (endogenous TRα and TRβ); assay: GH3-TRE-Ag primary qHTS, luciferase reporter, agonist mode (TOX21_TR_LUC_GH3_Agonist, aeid 803); type: cell-based, rat; conditions: for GH3-TRE-Ag AC50 hitc: hit call from tcpl; for AC50: read-out: GH3-TRE-Ag AC50
[4] = molecular target: T3, human TRβ ligand-binding domain (Homo sapiens, UniProt P10828); assay: TRb-bla agonist mammalian one-hybrid beta-lactamase assay (TOX21_TRB_BLA_Agonist_Followup_ratio, aeid 2236); type: cell-based; design: host or cells: GeneBLAzer UAS-bla HEK 293T; conditions: for AC50: HEK 293T one-hybrid, agonist mode, read-out: TRb-bla-Ag AC50; for TRb-bla hitc: hit call from tcpl, agonist
T3 sequence (P10828 217-461 limits assumed): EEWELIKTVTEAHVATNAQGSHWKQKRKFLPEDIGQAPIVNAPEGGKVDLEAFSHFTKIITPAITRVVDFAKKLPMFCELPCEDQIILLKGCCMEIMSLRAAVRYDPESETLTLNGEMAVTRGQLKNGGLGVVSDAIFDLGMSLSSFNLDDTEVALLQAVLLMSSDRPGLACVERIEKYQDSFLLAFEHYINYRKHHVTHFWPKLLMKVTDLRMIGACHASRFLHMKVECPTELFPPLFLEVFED

[5] = test system: thyroid hormone receptor (endogenous TRα and TRβ); assay: GH3-TRE-Ag-Followup confirmation (TOX21_TR_LUC_GH3_Agonist_Followup, aeid 2226); type: cell-based, rat; conditions: for AC50: confirmation, agonist mode, read-out: GH3-TRE-Ag-Followup AC50; for GH3-TRE-Ag-Followup hitc: hit call from tcpl
[6] = test system: Tox21 cell viability assays (different cell types); assay: Global cytotoxicity: eighteen Tox21 cell viability assays; type: cell-based; conditions: for GLOBAL CYTOTOXICITY cytotox.median: median over Tox21 viability assays
[7] = as above; type: cell-based; conditions: read-out: Global cytotoxicity AC50 median
GH3-TRE-Luc cell line [8] = assay: GH3-TRE-Via cell viability, CellTiter-Fluor (TOX21_TR_LUC_GH3_Antagonist_viability, aeid 805); conditions: hit call from tcpl
[9] = as above; conditions: rat
[10] = molecular target: T3, human TRβ ligand-binding domain; assay: TRb-coa LanthaScreen TR-FRET coactivator (SRC-2 peptide) recruitment, agonist (TOX21_TRB_COA_Agonist_Followup_ratio, aeid 2244); type: biochemical; design: host or cells: GeneBLAzer UAS-bla HEK 293T; conditions: for AC50: cell-free coactivator recruitment, read-out: TRb-coa-Ag AC50; for TRb-coa hitc: hit call from tcpl, agonist; for Emax: read-out: EMax (% of Control) trb-coa-agonist-followup-1
GH3-TRE-Luc cell line [11] = test system: GH3-TRE-Luc cell line
in vitro = conditions: rat, gh3-tre-luc cells, AC50 (uM) modified / 1000
[12] = test system: thyroid hormone receptor (endogenous TRα and TRβ); assay: GH3-TRE-Antag primary qHTS, luciferase reporter, antagonist mode with 1 nM T3 (TOX21_TR_LUC_GH3_Antagonist, aeid 804); type: cell-based, rat; conditions: antagonist mode, 1 nM T3; read-out: GH3-TRE-Antag AC50
[13] = read-out: EMax (% of Control) tr-followup-rxr-bla-agonist-1
[14] = # active of 18 total Tox21 viability assays
[15] = median over 18 Tox21 cell viability assays (Judson et al. 2016, invitrodb_v2)
[16] = antagonist candidates, inactive samples arbitrarily set to AC50=1,000 μM
[17] = median over 18 Tox21 cell viability assays, inactive set to 1,000

T1 sequence (P10827 163-410 isoform P10827-2 limits assumed, other chains not shown): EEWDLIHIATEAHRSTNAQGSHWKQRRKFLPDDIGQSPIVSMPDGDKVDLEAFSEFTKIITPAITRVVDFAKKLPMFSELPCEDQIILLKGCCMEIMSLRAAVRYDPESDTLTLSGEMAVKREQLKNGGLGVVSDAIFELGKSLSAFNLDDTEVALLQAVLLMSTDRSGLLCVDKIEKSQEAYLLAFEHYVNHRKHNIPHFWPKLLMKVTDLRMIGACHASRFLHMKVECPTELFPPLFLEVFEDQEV

Row | Categorization Code [2] | Classification [2] | Structure (SMILES) | AC50 [1] [µM] | TRa-coa hitc [1] | Emax [1] [%] | AC50 (human RXRα) [µM] | tr-followup-rxr-bla-agonist-1 hitc (human RXRα) | Emax (human RXRα; [13]) [%] | EMax (% of Control) gh3-tre-agonist [3] | GH3-TRE-Ag AC50 hitc [3] | AC50 [4] [µM] | TRb-bla hitc [4] | EMax (% of Control) gh3-tre-agonist-followup-1_agonist [5] | AC50 [5] [µM] | GH3-TRE-Ag-Followup hitc [5] | GLOBAL CYTOTOXICITY cytotox.number_Active [6, 14] | GLOBAL CYTOTOXICITY cytotox.median [6] | AC50 [7, 15] [µM] | TR_LUC_GH3_Antagonist_viability hitc (GH3-TRE-Luc cell line [8]) | AC50 at 24 h [9] [µM] | also measured
1 | RXR-Ag | RXR-Ag | CC(C)(C)CC(C)(C)c1ccc(O)c(Cc2ccc(Cl)cc2Cl)c1 [Clofoctol, reference compound] | 8.92 | 1 | 55.5 | 6.8 | 1 | 36.1 | 23.6 % of Control | 1 | > 92 | 0 | 34.4 % of Control | 3 | 1 | 16 | 16.7 | 16.7 | 1 | 8.04 | Emax (human RXRα; read-out: EMax in RXR assay): 36%; AC50 [10]: 8.93 µM; TRb-coa hitc [10]: 1; Emax [10]: 64.9%
2 |  |  | N#CC(c1ccc(Cl)cc1)c1c(Cl)cc(-n2ncc(=O)[nH]c2=O)cc1Cl (centres unmarked) [Diclazuril] |  |  |  |  |  |  |  |  |  |  |  |  |  |  |  |  |  | > 92 | cytotoxicity in GH3 viability assay (GH3-TRE-Luc cell line [11]): lacked cytotoxicity; CC50 at 24 h (in vitro): > 50 µM; AC50 [3, 16]: > 92 µM; Active in global cytotoxicity assays (%) [6]: 33.3%; active rate in Tox21 viability/cytotoxicity assays [6]: 33%; AC50 [7, 17]: 33 µM
3 |  |  | Cc1ccc2c(Cl)cc(Cl)c(O)c2n1 [5,7-Dichloro-8-hydroxy-2-methylquinoline] |  |  |  |  |  |  |  |  |  |  |  |  |  |  |  |  |  | 1.56 | AC50 [3, 16]: > 92 µM; AC50 [12]: 1.5 µM; Active in global cytotoxicity assays (%) ([6]; percentage of 18 Tox21 viability assays with hitc=1): 13.6%; AC50 [7, 17]: 13.6 µM
4 | RXR-Ag | RXR-Ag | CC1=C(/C=C/C(C)=C\C=C\C(C)=C\C(=O)O)C(C)(C)CCC1 [9-cis Retinoic acid, reference compound] | > 92 | 0 | -0.13 |  |  |  | 31.8 % of Control | 1 | > 92 | 0 | 76.0 % of Control | 2.07 | 1 |  | >92 | > 92 |  | > 92 | TR_LUC_GH3_Antagonist_viability hitc (GH3-TRE-Luc cell line [11]; rat, 24 h): 0; Emax ([4]; read-out: EMax (% of Control) trb-bla-agonist-followup-1): 5.7%; GLOBAL CYTOTOXICITY cytotox.number_Active [6]: 0; AC50 [10]: > 92 µM; TRb-coa hitc [10]: 0; Emax [10]: -0.274%

Row | Structure (SMILES) | Categorization Code [2] | Classification [2] | AC50 [1] [µM] | TRa-coa hitc [1] | Emax [1] [%] | AC50 (human RXRα) [µM] | tr-followup-rxr-bla-agonist-1 hitc (human RXRα) | Emax (human RXRα; [13]) [%] | EMax (% of Control) gh3-tre-agonist [3] | GH3-TRE-Ag AC50 hitc [3] | AC50 [4] [µM] | TRb-bla hitc [4] | EMax (% of Control) gh3-tre-agonist-followup-1_agonist [5] | AC50 [5] [µM] | GH3-TRE-Ag-Followup hitc [5] | GLOBAL CYTOTOXICITY cytotox.number_Active [6, 14] | GLOBAL CYTOTOXICITY cytotox.median [6] | AC50 [7, 15] [µM] | TR_LUC_GH3_Antagonist_viability hitc (GH3-TRE-Luc cell line [8]) | AC50 at 24 h [9] [µM] | also measured
5 | N[C@@H](Cc1cc(I)c(Oc2cc(I)c(O)c(I)c2)c(I)c1)C(=O)O [Levothyroxine, reference compound] | TR-Ag | TR-Ag |  | 1 | 171 | 1.36 | 0 | 21.2 | 117.2 % of Control | 1 |  |  | 100.3 % of Control |  | 1 | 0 | >92 | > 92 | 0 | > 92 | AC50 ([3]; primary qHTS, agonist mode, 24 h, top concentration 92 μM): 0.0061 µM
